From ChEMBL document CHEMBL5465560, “Selectivity Literature for EUbOPEN Chemogenomic Library” (2024)
One block for each molecule: values may come before it.

How the values were obtained:
[1] = biological target: T1, Calcium/calmodulin-dependent protein kinase type IV (Homo sapiens) (UniProt Q16566); assay: Selectivity interaction (KinomeScan (DiscoverX)) EUB0000666a CAMK4; conditions: at 10 µM
T1 sequence (whole entry): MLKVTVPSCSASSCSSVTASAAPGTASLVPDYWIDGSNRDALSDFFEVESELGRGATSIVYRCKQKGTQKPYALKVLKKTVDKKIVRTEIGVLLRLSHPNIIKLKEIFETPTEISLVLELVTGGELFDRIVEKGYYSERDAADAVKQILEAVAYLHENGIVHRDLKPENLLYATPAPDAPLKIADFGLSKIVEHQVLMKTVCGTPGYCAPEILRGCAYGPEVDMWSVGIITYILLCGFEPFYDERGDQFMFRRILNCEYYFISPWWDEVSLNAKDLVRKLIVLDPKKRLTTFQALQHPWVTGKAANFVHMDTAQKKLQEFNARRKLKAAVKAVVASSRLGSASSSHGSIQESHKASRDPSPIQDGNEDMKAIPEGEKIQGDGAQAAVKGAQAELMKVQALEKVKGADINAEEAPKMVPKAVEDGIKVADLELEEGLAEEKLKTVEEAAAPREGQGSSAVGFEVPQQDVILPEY

[2] = biological target: Mitogen-activated protein kinase kinase kinase kinase 5 (Homo sapiens) (UniProt Q9Y4K4); assay: Selectivity interaction (KinomeScan (DiscoverX)) EUB0000666a MAP4K5; conditions: at 10 µM
Mitogen-activated protein kinase kinase kinase kinase 5 (Homo sapiens), sequence (Q9Y4K4 whole entry, looked up): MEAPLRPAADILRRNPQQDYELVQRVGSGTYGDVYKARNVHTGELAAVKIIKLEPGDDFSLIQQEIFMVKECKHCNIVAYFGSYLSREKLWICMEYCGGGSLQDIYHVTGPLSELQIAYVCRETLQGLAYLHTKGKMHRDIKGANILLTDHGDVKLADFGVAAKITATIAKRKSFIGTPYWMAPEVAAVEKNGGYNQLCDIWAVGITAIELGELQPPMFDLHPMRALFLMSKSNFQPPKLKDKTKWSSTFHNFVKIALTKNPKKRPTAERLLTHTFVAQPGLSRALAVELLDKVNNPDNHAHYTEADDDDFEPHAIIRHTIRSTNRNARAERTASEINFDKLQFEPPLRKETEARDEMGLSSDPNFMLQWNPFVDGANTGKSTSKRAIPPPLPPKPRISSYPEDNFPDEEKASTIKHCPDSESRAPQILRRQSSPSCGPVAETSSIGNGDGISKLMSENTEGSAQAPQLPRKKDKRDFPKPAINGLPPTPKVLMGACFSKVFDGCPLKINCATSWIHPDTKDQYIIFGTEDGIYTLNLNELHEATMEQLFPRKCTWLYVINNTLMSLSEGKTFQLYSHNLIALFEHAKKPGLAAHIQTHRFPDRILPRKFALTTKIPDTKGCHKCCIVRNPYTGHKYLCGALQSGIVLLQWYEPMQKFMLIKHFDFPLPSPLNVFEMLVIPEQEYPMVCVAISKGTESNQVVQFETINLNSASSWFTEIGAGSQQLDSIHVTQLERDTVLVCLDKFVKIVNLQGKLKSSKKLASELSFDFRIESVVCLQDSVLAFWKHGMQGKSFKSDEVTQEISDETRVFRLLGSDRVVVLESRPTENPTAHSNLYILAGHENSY

[3] = biological target: G protein-coupled receptor kinase 5 (Homo sapiens, UniProt P34947); assay: Selectivity interaction (Upstate Kinase Profiler service (Millipore)) EUB0000056c GRK5; conditions: at 1 µM
G protein-coupled receptor kinase 5, sequence (P34947 whole entry, looked up): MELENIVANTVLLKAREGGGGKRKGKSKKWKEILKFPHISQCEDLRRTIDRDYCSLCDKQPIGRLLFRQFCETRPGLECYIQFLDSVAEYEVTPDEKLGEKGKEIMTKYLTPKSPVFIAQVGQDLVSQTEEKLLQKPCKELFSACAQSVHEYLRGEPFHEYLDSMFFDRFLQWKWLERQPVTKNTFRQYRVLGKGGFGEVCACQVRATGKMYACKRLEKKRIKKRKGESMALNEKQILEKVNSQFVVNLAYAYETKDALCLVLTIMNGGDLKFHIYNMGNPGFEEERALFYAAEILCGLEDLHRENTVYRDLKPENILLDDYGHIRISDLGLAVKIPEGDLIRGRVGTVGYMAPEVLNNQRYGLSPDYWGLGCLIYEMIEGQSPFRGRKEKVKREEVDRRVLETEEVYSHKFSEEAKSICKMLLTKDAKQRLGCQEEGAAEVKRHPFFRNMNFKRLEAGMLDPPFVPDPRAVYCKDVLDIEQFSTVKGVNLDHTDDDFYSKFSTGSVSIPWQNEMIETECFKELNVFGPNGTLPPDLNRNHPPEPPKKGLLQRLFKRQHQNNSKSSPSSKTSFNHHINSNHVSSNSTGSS

[4] = biological target: T2, Mitogen-activated protein kinase kinase kinase 5 (Homo sapiens) (UniProt Q99683); assay: Selectivity interaction (Kinase panel (DSF assay)) EUB0001558a MAP3K5
T2 sequence (whole entry): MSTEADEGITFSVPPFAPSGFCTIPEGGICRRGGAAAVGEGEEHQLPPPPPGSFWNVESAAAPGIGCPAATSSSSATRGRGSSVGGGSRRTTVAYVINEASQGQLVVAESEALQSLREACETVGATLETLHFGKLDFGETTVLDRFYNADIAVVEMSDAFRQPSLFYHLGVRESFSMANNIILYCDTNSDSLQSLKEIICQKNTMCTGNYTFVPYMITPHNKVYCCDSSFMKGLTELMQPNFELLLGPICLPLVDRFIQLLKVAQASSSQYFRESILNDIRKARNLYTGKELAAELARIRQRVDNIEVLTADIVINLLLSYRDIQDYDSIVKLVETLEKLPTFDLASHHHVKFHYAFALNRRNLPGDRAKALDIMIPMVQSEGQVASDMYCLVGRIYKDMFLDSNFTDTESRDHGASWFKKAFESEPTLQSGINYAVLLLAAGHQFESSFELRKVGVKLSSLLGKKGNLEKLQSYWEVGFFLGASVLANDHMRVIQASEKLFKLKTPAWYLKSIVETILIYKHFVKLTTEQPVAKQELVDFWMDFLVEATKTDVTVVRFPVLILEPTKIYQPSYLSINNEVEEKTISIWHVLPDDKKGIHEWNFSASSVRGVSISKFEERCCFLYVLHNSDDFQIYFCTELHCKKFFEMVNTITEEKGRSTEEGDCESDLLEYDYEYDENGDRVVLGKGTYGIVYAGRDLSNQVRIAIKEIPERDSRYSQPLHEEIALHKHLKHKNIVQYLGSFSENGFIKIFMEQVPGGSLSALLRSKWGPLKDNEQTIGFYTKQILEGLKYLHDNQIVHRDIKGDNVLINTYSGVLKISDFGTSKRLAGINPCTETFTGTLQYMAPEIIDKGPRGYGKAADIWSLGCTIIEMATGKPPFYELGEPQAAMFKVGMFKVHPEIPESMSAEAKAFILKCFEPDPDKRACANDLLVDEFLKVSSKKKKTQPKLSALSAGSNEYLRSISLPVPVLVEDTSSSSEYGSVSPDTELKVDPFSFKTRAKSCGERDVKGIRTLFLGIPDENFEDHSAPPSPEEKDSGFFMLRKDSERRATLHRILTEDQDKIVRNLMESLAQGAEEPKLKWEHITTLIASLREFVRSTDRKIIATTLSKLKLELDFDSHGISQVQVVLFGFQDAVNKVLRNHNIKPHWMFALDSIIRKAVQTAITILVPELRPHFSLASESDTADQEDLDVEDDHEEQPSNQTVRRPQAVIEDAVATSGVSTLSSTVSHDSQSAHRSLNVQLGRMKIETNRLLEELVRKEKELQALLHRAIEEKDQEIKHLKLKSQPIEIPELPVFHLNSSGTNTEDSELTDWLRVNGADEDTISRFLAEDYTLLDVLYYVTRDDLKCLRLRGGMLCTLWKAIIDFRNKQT

[5] = biological target: T3, Ephrin type-B receptor 1 (Homo sapiens) (UniProt P54762); assay: Selectivity interaction (KinomeScan (DiscoverX)) EUB0001619a EPHB1; conditions: at 1 µM
T3 sequence (whole entry): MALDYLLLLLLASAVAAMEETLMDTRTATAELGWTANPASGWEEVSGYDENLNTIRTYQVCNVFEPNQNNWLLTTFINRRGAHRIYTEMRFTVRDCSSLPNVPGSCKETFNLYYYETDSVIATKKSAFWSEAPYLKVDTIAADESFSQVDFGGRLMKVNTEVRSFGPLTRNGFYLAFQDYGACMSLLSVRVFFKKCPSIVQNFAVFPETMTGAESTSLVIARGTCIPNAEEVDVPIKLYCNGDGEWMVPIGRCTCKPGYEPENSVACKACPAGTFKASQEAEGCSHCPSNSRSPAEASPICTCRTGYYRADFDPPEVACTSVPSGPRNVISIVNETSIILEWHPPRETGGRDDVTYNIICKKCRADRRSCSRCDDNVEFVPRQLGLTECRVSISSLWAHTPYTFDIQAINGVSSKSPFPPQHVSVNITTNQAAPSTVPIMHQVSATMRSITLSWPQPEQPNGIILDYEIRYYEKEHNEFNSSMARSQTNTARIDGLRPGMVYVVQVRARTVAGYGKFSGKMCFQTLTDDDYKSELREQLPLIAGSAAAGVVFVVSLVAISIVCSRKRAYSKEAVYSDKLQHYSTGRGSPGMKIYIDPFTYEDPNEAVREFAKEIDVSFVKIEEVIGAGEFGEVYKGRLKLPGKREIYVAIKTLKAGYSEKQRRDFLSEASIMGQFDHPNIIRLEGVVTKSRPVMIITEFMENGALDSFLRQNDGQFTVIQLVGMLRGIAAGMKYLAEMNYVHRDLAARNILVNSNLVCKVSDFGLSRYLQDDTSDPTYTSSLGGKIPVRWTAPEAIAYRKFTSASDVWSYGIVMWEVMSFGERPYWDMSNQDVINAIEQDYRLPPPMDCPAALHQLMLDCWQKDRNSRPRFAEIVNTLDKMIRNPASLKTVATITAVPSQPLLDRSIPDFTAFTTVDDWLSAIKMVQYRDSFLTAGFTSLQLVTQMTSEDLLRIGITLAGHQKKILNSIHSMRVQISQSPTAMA

Compound: O=C(NOC[C@H](O)CO)c1ccc(F)c(F)c1Nc1ccc(I)cc1F
% of control [1]: 100% | % of control [2]: 69%

% of inhibition [3]: -23%
Compound: Cc1ccc(-c2ccc3c(ccc4sc5c(c43)NC[C@@H](C)NC5=O)n2)cn1

Compound: CC(C)(O)[C@H](F)CN1Cc2cc(NC(=O)c3cnn4cccnc34)c(N3CCOCC3)cc2C1=O
dTM [4]: 0.5 K

Compound: N#Cc1cccc(-c2c[nH]c3ncnc(N4CCOCC4)c23)c1
% of control [5]: 100%
